Assays:
[1] = molecular target: Sigma non-opioid intracellular receptor 1 (Cavia porcellus) (UniProt Q60492); test: Displacement of [3H]-(+)-Pentazocine from sigma1 receptor in guinea pig brain homogenate at 1 uM incubated for 120 mins by solid scintillation counting analysis; type: tissue-based
[2] = species: Rattus norvegicus; test: Displacement of [3H]DTG from sigma2 receptor in rat liver homogenate at 1 uM incubated for 120 mins by solid scintillation counting analysis; type: tissue-based
[3] = molecular target: T1, Glutamate receptor ionotropic, NMDA 2B (Homo sapiens, UniProt Q13224); test: Displacement of [3H]ifenprodil from recombinant human GluN2B expressed in mouse L(tk-) cell membranes at 1 uM incubated for 120 mins by microbeta scintillation counting analysis
Target sequence in this assay (Q13224 27-1484 limits assumed): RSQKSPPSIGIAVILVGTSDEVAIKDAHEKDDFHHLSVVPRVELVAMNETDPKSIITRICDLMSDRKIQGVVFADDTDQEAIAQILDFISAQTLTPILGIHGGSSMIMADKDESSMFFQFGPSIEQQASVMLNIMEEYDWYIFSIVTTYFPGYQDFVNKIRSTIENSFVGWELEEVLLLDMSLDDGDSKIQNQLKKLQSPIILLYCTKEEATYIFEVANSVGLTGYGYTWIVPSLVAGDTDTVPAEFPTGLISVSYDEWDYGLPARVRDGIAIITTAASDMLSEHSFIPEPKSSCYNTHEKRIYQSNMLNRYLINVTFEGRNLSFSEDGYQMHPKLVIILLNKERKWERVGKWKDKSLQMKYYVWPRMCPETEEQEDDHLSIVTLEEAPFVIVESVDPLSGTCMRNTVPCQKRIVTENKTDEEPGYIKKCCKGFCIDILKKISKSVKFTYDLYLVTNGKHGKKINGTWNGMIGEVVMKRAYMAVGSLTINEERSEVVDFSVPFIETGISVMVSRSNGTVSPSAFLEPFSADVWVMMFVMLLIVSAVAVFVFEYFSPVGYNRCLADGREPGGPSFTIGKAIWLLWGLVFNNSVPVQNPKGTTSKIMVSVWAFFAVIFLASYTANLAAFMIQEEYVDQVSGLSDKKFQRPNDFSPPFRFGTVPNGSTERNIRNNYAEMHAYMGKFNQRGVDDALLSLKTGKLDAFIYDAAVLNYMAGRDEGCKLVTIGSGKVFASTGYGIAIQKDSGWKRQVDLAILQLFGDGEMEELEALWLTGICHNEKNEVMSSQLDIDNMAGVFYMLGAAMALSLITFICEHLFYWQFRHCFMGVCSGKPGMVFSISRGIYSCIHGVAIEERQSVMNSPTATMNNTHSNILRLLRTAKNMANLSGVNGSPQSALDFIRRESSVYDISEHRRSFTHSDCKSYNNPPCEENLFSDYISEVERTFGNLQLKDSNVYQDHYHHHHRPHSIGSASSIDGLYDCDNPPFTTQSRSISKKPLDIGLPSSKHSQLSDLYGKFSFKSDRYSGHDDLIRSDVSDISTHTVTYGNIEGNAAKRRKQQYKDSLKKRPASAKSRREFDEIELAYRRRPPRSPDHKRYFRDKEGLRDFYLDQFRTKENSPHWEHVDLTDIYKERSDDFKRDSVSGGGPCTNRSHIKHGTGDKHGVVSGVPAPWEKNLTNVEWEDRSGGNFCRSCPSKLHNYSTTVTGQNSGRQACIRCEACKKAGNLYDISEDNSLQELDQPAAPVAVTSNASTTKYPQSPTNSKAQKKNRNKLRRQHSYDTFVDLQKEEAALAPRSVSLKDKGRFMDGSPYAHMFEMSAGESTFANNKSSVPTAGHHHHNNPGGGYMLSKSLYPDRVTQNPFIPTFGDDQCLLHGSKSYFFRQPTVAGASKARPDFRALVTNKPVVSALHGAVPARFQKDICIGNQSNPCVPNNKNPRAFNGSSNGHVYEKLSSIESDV

[4] = molecular target: Sigma non-opioid intracellular receptor 1 (Cavia porcellus, UniProt Q60492); test: Displacement of [3H]-(+)-Pentazocine from sigma1 receptor in guinea pig brain homogenate incubated for 120 mins by solid scintillation counting analysis; type: tissue-based
Sequence of Sigma non-opioid intracellular receptor 1 (Q60492 whole entry): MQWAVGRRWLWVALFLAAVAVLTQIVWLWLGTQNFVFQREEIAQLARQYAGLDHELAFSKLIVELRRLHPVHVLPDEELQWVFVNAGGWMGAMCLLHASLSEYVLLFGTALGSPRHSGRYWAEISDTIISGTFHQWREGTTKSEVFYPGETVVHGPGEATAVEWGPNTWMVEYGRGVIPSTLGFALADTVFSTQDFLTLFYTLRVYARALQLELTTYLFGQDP

[5] = Displacement of [3H]DTG from sigma2 receptor in rat liver homogenate incubated for 120 mins by solid scintillation counting analysis; type: tissue-based
[6] = molecular target: T1, Glutamate receptor ionotropic, NMDA 2B; test: Displacement of [3H]ifenprodil from recombinant human GluN2B expressed in mouse L(tk-) cell membranes incubated for 120 mins by microbeta scintillation counting analysis
Target sequence in this assay (Q13224 whole entry): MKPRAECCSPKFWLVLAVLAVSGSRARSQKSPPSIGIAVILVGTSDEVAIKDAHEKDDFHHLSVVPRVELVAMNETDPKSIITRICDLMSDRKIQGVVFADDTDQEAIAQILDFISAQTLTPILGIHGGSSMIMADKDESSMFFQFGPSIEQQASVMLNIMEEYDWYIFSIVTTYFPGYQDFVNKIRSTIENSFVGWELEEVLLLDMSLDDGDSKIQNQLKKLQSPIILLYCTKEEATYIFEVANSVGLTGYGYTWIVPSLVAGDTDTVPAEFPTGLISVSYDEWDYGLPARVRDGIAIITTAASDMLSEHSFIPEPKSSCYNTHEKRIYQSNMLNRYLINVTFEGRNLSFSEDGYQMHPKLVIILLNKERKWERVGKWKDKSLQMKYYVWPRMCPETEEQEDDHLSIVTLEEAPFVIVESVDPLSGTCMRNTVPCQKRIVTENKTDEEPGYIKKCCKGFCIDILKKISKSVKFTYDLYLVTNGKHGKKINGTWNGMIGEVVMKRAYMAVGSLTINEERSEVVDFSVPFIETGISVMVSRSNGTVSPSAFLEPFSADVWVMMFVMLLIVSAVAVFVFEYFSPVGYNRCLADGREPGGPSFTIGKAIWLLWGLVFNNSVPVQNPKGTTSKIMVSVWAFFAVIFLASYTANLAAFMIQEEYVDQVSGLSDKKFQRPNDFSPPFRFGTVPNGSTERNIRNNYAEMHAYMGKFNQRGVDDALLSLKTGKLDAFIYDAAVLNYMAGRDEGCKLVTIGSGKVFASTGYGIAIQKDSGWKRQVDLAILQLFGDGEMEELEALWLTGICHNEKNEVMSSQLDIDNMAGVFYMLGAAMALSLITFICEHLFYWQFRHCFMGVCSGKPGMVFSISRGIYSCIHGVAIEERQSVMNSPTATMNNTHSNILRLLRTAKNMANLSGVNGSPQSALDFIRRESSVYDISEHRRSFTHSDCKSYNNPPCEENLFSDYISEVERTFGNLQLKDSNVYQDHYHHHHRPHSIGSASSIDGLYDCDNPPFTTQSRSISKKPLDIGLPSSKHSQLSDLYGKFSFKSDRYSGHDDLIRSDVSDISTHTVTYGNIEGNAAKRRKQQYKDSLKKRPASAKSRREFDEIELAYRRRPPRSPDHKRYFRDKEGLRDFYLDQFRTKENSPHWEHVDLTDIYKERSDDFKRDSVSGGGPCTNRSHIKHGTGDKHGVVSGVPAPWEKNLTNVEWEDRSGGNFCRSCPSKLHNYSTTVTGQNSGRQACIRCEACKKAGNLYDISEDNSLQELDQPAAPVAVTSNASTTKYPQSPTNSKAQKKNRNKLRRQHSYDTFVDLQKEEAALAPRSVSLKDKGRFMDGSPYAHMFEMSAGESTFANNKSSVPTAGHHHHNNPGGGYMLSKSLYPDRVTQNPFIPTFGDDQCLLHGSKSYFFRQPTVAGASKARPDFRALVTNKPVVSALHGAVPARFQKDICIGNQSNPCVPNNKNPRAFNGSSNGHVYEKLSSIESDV

[7] = molecular target: T1, Glutamate receptor ionotropic, NMDA 2B; test: Binding affinity to GluN2B (unknown origin)
Target sequence in this assay (Q13224 whole entry): as above

Sequence of Sigma non-opioid intracellular receptor 1 (Cavia porcellus) (Q60492 whole entry): as the sequence (Q60492 whole entry) above

Compound	inhibition [1] [%]	inhibition [2] [%]	inhibition [3] [%]	Ki [5] [nM]	further results
Cn1c(=O)n(C)c2cc3c(cc21)CCC[C@@H](O)[C@@H]3NCCCc1ccccc1 (racemic)	19	32	0		
Cn1c(=O)n(C)c2cc3c(cc21)CCCC(NCCCc1ccccc1)C3 (racemic)				549	Ki [4]: 4000 nM; Ki [6]: 697 nM
Cc1ccccc1NC(=N)Nc1ccccc1C [DITOLYLGUANIDINE]				57.5	
Cn1c(=O)n(C)c2cc3c(cc21)CCC[C@@H](O)[C@@H]3O (racemic)	0	18	18		
Cn1c(=O)n(C)c2cc3c(cc21)CCC[C@H](O)[C@@H]3O (racemic)	11	5	0		
O=c1[nH]c2ccc([S+]([O-])CCN3CCC(Cc4ccc(F)cc4)CC3)cc2o1 (centres undefined) [BESONPRODIL]					Ki [7]: 30 nM

From ChEMBL document CHEMBL3797194, “Benzimidazolone bioisosteres of potent GluN2B selective NMDA receptor antagonists” (Eur J Med Chem, 2016)
